US20250360214A1, “NON-TOXIC PHOTOSENSITIZER COMPOSITION AND TWO-COMPONENT TYPE PHOTOSENSITIZER COMPOSITION COMPRISING THE SAME” (priority 2024, published 2025)
Counter-ions that a name gives are not always drawn.

What was measured:
[1] = background statement; cited from earlier work
RAW264.7 = experiment: Cytotoxicity test (MTT assay) of solvent components PEG, DMSO and HCl; type: cell-based; settings: RAW264.7, MTT assay, FIG. 1
Description: RAW264.7 (5×10^5 cells/well in 6 well plate) was used as a cell line, and 1XDMEM (supplemented with 7% FBS and 1% antibiotics) medium (Thermo fisher scientific, 11995-065) was used.
Raw264.7 cells, which may be animal model cells, were seeded into 6 well plates containing 2 mL of DMEM medium to have an initial cell number of 5×10^5 cells/well, and then cultured in a CO2 incubator at 37° C. for 1 day under CO2 conditions. After 1 day of culture, solvent composition samples were added and cultured for an additional 2 days under the same conditions, respectively. After that, MTT assay was performed to confirm cytotoxicity.
In this case, the MTT assay method using an MTT assay kit (EZ-CYTOX-company, Dogenbio-model number: EZ-500) first prepared 5×10^5/well (total vol. 2 ml) in a 6-well plate for seeding, and then cultured for 24 h under 37° C., 5% CO2 conditions. A blank (only media) without cells was also prepared at the same time. An experimental material was treated according to conditions, and then cultured and reacted for 24 h under 37° C./5% CO2 conditions. Additionally, 200 μL Ez-cytox ( 1/10) was added to each of the wells, and reacted for 1 h. The wells were shaken gently before measuring absorbance, 200 μL thereof was then transferred to a 96-well plate, the absorbance was measured at a wavelength of 450 nm, and a viability rate was calculated according to the following equation (1).

Question: For “3-[(3, 5-dimethyl-1H-pyrazole-4-yl)methyl]-3-devinylpyropheophorbide-a methyl ester [MPP100]”, which water solubility [1] is on record?
Answer: extremely low water solubility

Question: Which “concentration at which no toxicity was observed” value (RAW264.7) does the source give for `C[S+](C)[O-]` [DMSO, dimethylsulfoxide] here?
Answer: ≤ 2 vol %

Question: With `Cl` [HCl, hydrochloric acid] as the molecule, how does the “concentration at which no toxicity was observed” value (RAW264.7) read?
Answer: ≤ 10 mN

Question: With polyethylene glycol [PEG] as the molecule, how does the “concentration at which no toxicity was observed” value (RAW264.7) read?
Answer: ≤ 3 vol %
